Reference: ChEMBL document CHEMBL5370693, “Kinases Controlling Stability of the Oncogenic MYCN Protein” (ACS Med Chem Lett, 2023)
The source made the active and inactive calls. The calls are words filed in the database; no cut-off is given here.

Assays:
[1] = test system: Phosphatidylinositol 4,5-bisphosphate 3-kinase catalytic subunit alpha isoform (Homo sapiens), P42336 [H1047Y]; assay: Inhibition of PIK3CA H1047Y mutant (unknown origin) assessed as remaining activity at 15 uM incubated for 1 hr by KINOMEscan competitive binding assay relative to control
[2] = target: Phosphatidylinositol 4,5-bisphosphate 3-kinase catalytic subunit alpha isoform (Homo sapiens) (UniProt P42336); assay: Inhibition of PIK3CA (unknown origin) assessed as remaining activity at 15 uM incubated for 1 hr by KINOMEscan competitive binding assay relative to control
[3] = target: T1, Phosphatidylinositol 4,5-bisphosphate 3-kinase catalytic subunit delta isoform (Homo sapiens) (UniProt O00329); assay: Inhibition of PIK3CD (unknown origin) assessed as remaining activity at 15 uM incubated for 1 hr by KINOMEscan competitive binding assay relative to control
T1 sequence (whole entry): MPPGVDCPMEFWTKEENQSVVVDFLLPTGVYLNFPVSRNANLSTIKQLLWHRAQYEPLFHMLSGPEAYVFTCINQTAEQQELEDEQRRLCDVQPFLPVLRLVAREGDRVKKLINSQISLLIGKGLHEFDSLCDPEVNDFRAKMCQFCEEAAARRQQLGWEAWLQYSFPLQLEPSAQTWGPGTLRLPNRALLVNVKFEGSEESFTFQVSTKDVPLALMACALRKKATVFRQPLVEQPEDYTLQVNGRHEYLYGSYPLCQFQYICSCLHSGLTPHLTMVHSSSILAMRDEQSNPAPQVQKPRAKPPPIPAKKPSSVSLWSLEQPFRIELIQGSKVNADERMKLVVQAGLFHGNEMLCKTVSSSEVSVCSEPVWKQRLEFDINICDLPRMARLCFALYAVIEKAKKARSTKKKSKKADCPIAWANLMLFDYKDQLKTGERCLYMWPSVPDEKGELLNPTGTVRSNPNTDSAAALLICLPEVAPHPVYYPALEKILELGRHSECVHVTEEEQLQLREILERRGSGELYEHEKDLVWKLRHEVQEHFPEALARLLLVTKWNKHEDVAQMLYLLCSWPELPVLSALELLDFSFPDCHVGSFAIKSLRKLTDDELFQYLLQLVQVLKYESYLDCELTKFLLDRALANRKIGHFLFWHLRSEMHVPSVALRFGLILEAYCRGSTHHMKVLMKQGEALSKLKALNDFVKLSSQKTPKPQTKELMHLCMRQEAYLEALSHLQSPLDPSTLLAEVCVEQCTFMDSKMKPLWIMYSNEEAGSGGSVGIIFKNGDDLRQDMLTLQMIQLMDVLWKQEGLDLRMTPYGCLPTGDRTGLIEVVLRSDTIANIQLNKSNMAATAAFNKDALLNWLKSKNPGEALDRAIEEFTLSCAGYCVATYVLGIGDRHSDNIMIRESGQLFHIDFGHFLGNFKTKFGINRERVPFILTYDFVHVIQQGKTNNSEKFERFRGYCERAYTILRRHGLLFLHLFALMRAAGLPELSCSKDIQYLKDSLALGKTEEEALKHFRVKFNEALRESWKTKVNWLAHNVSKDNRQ

[4] = target: Serine/threonine-protein kinase 38-like (Homo sapiens) (UniProt Q9Y2H1); assay: Binding affinity to STK38L in human SKNBE2 cells assessed as effect on thermal stability at 49 degC incubated for 3 hrs by CETSA assay; type: cell-based
[5] = test system: Phosphatidylinositol 4,5-bisphosphate 3-kinase catalytic subunit alpha isoform (Homo sapiens), P42336 [C420R]; assay: Inhibition of PIK3CA C420R mutant (unknown origin) assessed as remaining activity at 15 uM incubated for 1 hr by KINOMEscan competitive binding assay relative to control
[6] = target: Phosphatidylinositol 4,5-bisphosphate 3-kinase catalytic subunit gamma isoform (Homo sapiens) (UniProt P48736); assay: Inhibition of PIK3CG (unknown origin) assessed as remaining activity at 15 uM incubated for 1 hr by KINOMEscan competitive binding assay relative to control
[7] = target: Casein kinase II subunit alpha' (Homo sapiens) (UniProt P19784); assay: Inhibition of CSNK2A2 (unknown origin) assessed as remaining activity at 15 uM incubated for 1 hr by KINOMEscan competitive binding assay relative to control
[8] = test system: Phosphatidylinositol 4,5-bisphosphate 3-kinase catalytic subunit alpha isoform (Homo sapiens), P42336 [I800L]; assay: Inhibition of PIK3CA I800L mutant (unknown origin) assessed as remaining activity at 15 uM incubated for 1 hr by KINOMEscan competitive binding assay relative to control
[9] = test system: Phosphatidylinositol 4,5-bisphosphate 3-kinase catalytic subunit alpha isoform (Homo sapiens), P42336 [E542K]; assay: Inhibition of PIK3CA E542K mutant (unknown origin) assessed as remaining activity at 15 uM incubated for 1 hr by KINOMEscan competitive binding assay relative to control
[10] = test system: Phosphatidylinositol 4,5-bisphosphate 3-kinase catalytic subunit alpha isoform (Homo sapiens), P42336 [H1047L]; assay: Inhibition of PIK3CA H1047L mutant (unknown origin) assessed as remaining activity at 15 uM incubated for 1 hr by KINOMEscan competitive binding assay relative to control
[11] = test system: Phosphatidylinositol 4,5-bisphosphate 3-kinase catalytic subunit alpha isoform (Homo sapiens), P42336 [E545A]; assay: Inhibition of PIK3CA E545A mutant (unknown origin) assessed as remaining activity at 15 uM incubated for 1 hr by KINOMEscan competitive binding assay relative to control
[12] = test system: Phosphatidylinositol 4,5-bisphosphate 3-kinase catalytic subunit alpha isoform (Homo sapiens), P42336 [E545K]; assay: Inhibition of PIK3CA E545K mutant (unknown origin) assessed as remaining activity at 10 uM incubated for 1 hr by KINOMEscan competitive binding assay relative to control
[13] = test system: Phosphatidylinositol 4,5-bisphosphate 3-kinase catalytic subunit alpha isoform (Homo sapiens), P42336 [I800L]; assay: Inhibition of PIK3CA I800L mutant (unknown origin) assessed as remaining activity at […] incubated for 1 hr by KINOMEscan competitive binding assay relative to control
[14] = test system: Phosphatidylinositol 4,5-bisphosphate 3-kinase catalytic subunit alpha isoform (Homo sapiens), P42336 [Q546K]; assay: Inhibition of PIK3CA Q546K mutant (unknown origin) assessed as remaining activity at […] incubated for 1 hr by KINOMEscan competitive binding assay relative to control

SMILES	Activity [1]	Activity [2]	Activity [3]	Activity [4]	Activity [5]	Activity [6]	Activity [7]	Activity [8]	Activity [9]	Activity [10]	Activity [11]	Activity [12]	Activity [13]	Activity [14]
CC(C)CCOc1ccc2c(=O)c(-c3ccc(O)c(O)c3)coc2c1	98%	100%	97%	inactive	94%	95%	100%	91%	98%	80%	100%			
NC(=O)Nc1cc(-c2cccc(F)c2)sc1C(=O)N[C@H]1CCCNC1												67%		
CC(C)=CCc1c2c(c3occ(-c4ccc(O)c(O)c4)c(=O)c3c1O)C=CC(C)(C)O2				inactive									100%	100%
CC(C)CC(=O)Oc1ccc2occ(-c3ccc(O)c(O)c3)c(=O)c2c1	98%	91%	93%		87%	86%	52%	98%	93%	69%	100%			
